Assay results taken from patent US8309546B2, “Morpholinopurine derivatives” (Daiichi Sankyo Company, Limited, priority 2008, dated 2012).

Experiments:
[1] = system: Akt (threonine 308) phosphorylation in AN3CA tumor; experiment: Akt phosphorylation inhibition assay in xenograft; format: in vivo, female nude mouse; conditions: Mus musculus, AN3-CA, oral, 6 hr after dosing
Experimental: (§1) A tumor section was prepared from a human endometrial cancer cell strain AN3CA tumor mass formed in a female nude mouse as subcutaneously transplanted tumor and a xenograft model was prepared by subcutaneously transplanting the tumor to a female nude mouse. The test compound at a predetermined concentration was orally administered. After a predetermined time, the anesthetized mouse was exsanguinated to death, and a tumor mass was isolated. The tumor mass was crushed using a lysis buffer containing inhibitors of proteases and dephosphorylating enzymes (Cell Signaling Technology, Inc.) and the supernatant was separated by centrifugation to obtain a tumor extract. The protein content of the tumor extract was measured using DC Protein Assay Kit (Bio-Rad Laboratories, Inc.) and phosphorylation conditions of Akt (threonine 308) and S6 (serine 235 and 236) were analyzed by a usual technique of western blotting using tumor extracts containing the same amount of protein. The primary antibody and the secondary antibody used for detecting each molecule were rabbit anti-phospho-Akt(T308) antibody and HRP-labeled goat anti-rabbit IgG antibody or mouse anti-phospho-S6(S235/236) antibody and HRP-labeled sheep anti-mouse IgG antibody.
(§2) The signal intensity detected using an image analyzer Typhoon 9400 (GE Healthcare) was quantified, and the phosphorylation inhibition rate (%) was calculated by the following formula. Phosphorylation inhibitory activity (%) of Akt and S6 after treatment with test compound=100−100×(B/A) A: Signal intensity derived from phosphorylated protein in tumor mass isolated from mouse untreated with test compound B: Signal intensity derived from phosphorylated protein in tumor mass isolated from mouse treated with test compound

[2] = target: PI3Kα (Homo sapiens, UniProt P42336); experiment: PI3K kinase activity inhibition assay; format: biochemical; conditions: Kinase-Glo Plus ATP detection, read-out: IC50 against PI3K
Chain of PI3Kα (P42336 whole entry, species assumed): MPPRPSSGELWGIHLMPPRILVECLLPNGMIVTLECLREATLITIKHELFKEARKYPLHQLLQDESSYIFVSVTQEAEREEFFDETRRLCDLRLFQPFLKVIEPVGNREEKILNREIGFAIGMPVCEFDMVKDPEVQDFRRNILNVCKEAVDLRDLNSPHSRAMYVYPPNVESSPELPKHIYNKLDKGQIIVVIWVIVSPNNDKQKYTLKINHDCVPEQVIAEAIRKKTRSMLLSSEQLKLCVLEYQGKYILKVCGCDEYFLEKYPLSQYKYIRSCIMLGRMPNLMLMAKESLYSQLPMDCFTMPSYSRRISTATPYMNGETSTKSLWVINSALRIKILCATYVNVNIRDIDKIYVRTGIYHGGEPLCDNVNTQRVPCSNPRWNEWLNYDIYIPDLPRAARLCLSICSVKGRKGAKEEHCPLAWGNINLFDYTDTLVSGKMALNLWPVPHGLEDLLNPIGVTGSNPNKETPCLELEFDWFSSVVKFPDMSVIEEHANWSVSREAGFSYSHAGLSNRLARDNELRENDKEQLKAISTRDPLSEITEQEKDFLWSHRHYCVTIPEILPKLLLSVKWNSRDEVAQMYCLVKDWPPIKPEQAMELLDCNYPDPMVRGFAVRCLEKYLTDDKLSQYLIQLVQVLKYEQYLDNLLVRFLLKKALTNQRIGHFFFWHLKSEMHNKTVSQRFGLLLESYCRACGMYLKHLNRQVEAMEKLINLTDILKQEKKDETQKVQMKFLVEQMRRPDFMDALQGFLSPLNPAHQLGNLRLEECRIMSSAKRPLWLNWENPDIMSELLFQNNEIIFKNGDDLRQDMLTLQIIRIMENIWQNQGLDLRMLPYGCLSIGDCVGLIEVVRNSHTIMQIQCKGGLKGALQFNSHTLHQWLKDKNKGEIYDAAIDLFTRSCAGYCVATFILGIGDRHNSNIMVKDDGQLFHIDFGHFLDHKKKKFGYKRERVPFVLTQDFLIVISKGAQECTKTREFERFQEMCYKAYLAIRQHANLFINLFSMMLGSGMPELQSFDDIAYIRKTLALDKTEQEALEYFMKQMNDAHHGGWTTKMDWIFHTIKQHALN
Chain of PI3Kα (P27986 whole entry partner, species assumed): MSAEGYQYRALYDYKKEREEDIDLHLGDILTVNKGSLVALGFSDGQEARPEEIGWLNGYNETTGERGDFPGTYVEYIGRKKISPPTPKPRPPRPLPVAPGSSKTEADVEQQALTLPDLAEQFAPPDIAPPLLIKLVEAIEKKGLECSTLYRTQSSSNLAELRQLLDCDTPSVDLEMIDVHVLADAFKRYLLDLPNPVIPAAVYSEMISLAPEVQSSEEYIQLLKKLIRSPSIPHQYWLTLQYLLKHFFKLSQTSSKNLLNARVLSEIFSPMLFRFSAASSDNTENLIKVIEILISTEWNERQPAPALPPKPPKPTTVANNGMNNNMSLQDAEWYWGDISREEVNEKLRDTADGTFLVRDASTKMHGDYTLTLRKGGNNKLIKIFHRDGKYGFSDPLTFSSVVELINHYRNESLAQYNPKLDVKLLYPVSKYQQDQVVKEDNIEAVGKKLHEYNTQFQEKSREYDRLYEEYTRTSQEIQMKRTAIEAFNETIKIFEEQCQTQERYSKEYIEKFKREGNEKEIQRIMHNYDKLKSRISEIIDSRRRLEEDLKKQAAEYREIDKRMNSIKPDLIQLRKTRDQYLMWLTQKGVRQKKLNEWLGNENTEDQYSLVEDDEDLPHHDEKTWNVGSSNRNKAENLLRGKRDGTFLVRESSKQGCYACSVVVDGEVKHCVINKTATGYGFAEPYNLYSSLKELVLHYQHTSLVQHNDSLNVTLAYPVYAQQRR
Outline: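 PI3Kα (50 nM solution) was reacted with 30 μM ATP and 45 μM PIP2 solutions, each in HEPES pH 7.4 with MgCl2 and DTT, for 2 h at room temperature. Remaining ATP was measured by Kinase-Glo Plus luminescence, and inhibition was derived from ATP consumed. IC50 was taken from curve fitting of the serial dilutions.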

[3] = system: S6 (serine 235 and 236) phosphorylation in AN3CA tumor; experiment: S6 phosphorylation inhibition assay in xenograft; format: in vivo, female nude mouse; conditions: Mus musculus, AN3-CA, oral, 6 hr after dosing
Experimental: as §1, §2

| Structure (SMILES) | IC50 [2] | inhibition at 10 mg/kg [1] | inhibition at 10 mg/kg [3] |
| --- | --- | --- | --- |
| CC(C)Cn1c(N2CCN(C(=O)[C@H](C)O)[C@@H](C)C2)nc2c(N3CCOCC3)nc(-c3cnc(N)nc3)nc21 [Example 104, (2S)-1-{(2S)-4-[2-(2-Aminopyrimidin-5-yl)-9-isobutyl-6-morpholin-4-yl-9H-purin-8-yl]-2-methylpiperazin-1-yl}-1-oxopropan-2-ol] | 10 to 20 nM | > 60% | > 90% |
| CC(C)Cn1c(N2CCN(C(=O)C[C@@H](C)O)[C@H](C)C2)nc2c(N3CCOCC3)nc(-c3cnc(N)nc3)nc21 [Example 84, (2R)-4-{(2R)-4-[2-(2-Aminopyrimidin-5-yl)-9-isobutyl-6-morpholin-4-yl-9H-purin-8-yl]-2-methylpiperazin-1-yl}-4-oxobutan-2-ol] | < 10 nM | > 60% | > 90% |
| CC(C)Cn1c(N2CCN(C(=O)C[C@H](C)O)[C@H](C)C2)nc2c(N3CCOCC3)nc(-c3cnc(N)nc3)nc21 [Example 86, (2S)-4-{(2R)-4-[2-(2-Aminopyrimidin-5-yl)-9-isobutyl-6-morpholin-4-yl-9H-purin-8-yl]-2-methylpiperazin-1-yl}-4-oxobutan-2-ol] | < 10 nM | > 60% | > 90% |
| CC(=O)N1CCN(c2nc3c(N4CCOCC4)nc(-c4cnc(N)nc4)nc3n2CC2CC2)C[C@@H]1C [Example 96, 5-{8-[(3S)-4-Acetyl-3-methylpiperazin-1-yl]-9-(cyclopropylmethyl)-6-morpholin-4-yl-9H-purin-2-yl}pyrimidin-2-amine] | < 10 nM | > 60% | > 90% |
| CC(C)Cn1c(N2CCN(C(=O)CO)CC2)nc2c(N3CCOC[C@@H]3C)nc(-c3cnc(N)nc3)nc21 [Example 130, 2-(4-{2-(2-Aminopyrimidin-5-yl)-9-isobutyl-6-[(3S)-3-methylmorpholin-4-yl]-9H-purin-8-yl}piperazin-1-yl)-2-oxoethanol] | 10 to 20 nM | 30 to 60% | > 90% |
| C[C@H]1CN(c2nc3c(N4CCOCC4)nc(-c4cnc(N)nc4)nc3n2CC(F)(F)F)CCN1C=O [Example 111, (2S)-4-[2-(2-Aminopyrimidin-5-yl)-6-morpholin-4-yl-9-(2,2,2-trifluoroethyl)-9H-purin-8-yl]-2-methylpiperazine-1-carboaldehyde] | < 10 nM | > 60% | > 90% |
| CC(C)Cn1c(N2CCN(C(=O)[C@H](C)O)[C@H](C)C2)nc2c(N3CCOCC3)nc(-c3cnc(N)nc3)nc21 [Example 103, (2S)-1-{(2R)-4-[2-(2-Aminopyrimidin-5-yl)-9-isobutyl-6-morpholin-4-yl-9H-purin-8-yl]-2-methylpiperazin-1-yl}-1-oxopropan-2-ol] | 10 to 20 nM | > 60% | > 90% |
| CNc1ncc(-c2nc(N3CCOCC3)c3nc(N4CCN(S(C)(=O)=O)[C@H](C)C4)n(CC(F)(F)F)c3n2)cn1 [Example 106, N-Methyl-5-{8-[(3R)-3-methyl-4-(methylsulfonyl)piperazin-1-yl]-6-morpholin-4-yl-9-(2,2,2-trifluoroethyl)-9H-purin-2-yl}pyrimidin-2-amine] | < 10 nM | > 60% | > 90% |
| CNc1ncc(-c2nc(N3CCOCC3)c3nc(N4CCN(C(C)=O)CC4)n(CC(F)(F)F)c3n2)cn1 [Example 134, 5-[8-(4-Acetylpiperazin-1-yl)-6-morpholin-4-yl-9-(2,2,2-trifluoroethyl)-9H-purin-2-yl]-N-methylpyrimidin-2-amine] | < 10 nM | 30 to 60% | > 90% |
| CC(C)Cn1c(N2CCN(C(=O)C[C@H](C)O)CC2)nc2c(N3CCOCC3)nc(-c3cnc(N)nc3)nc21 [Example 82, (2S)-4-{4-[2-(2-Aminopyrimidin-5-yl)-9-isobutyl-6-morpholin-4-yl-9H-purin-8-yl]piperazin-1-yl}-4-oxobutan-2-ol] | 10 to 20 nM | > 60% | > 90% |
| CC(=O)N1[C@H](C)CN(c2nc3c(N4CCOCC4)nc(-c4cnc(N)nc4)nc3n2CC(F)(F)F)C[C@@H]1C [Example 115, 5-[8-(4-Acetyl-cis-3,5-dimethylpiperazin-1-yl)-6-morpholin-4-yl-9-(2,2,2-trifluoroethyl)-9H-purin-2-yl]pyrimidin-2-amine] | < 10 nM | > 60% | > 90% |
| CC(=O)C(=O)N1CCN(c2nc3c(N4CCOCC4)nc(-c4cnc(N)nc4)nc3n2CC(F)(F)F)CC1 [Example 65, 1-{4-[2-(2-Aminopyrimidin-5-yl)-6-morpholin-4-yl-9-(2,2,2-trifluoroethyl)-9H-purin-8-yl]piperazin-1-yl}-1-oxoacetone] | < 10 nM | 30 to 60% | > 90% |
| CC(=O)N1[C@H](C)CN(c2nc3c(N4CCOCC4)nc(-c4cnc(N)nc4)nc3n2CC2CC2)C[C@@H]1C [Example 98, 5-{8-[4-Acetyl-cis-3,5-dimethylpiperazin-1-yl]-9-(cyclopropylmethyl)-6-morpholin-4-yl-9H-purin-2-yl}pyrimidin-2-amine] | < 10 nM | 30 to 60% | > 90% |

The next lines start with results.

| IC50 [2] | Structure (SMILES) | inhibition at 10 mg/kg [1] | inhibition at 10 mg/kg [3] |
| --- | --- | --- | --- |
| < 10 nM | CC(C)Cn1c(N2CCN(C(=O)C[C@H](C)O)[C@@H](C)C2)nc2c(N3CCOCC3)nc(-c3cnc(N)nc3)nc21 [Example 85, (2S)-4-{(2S)-4-[2-(2-Aminopyrimidin-5-yl)-9-isobutyl-6-morpholin-4-yl-9H-purin-8-yl]-2-methylpiperazin-1-yl}-4-oxobutan-2-ol] | > 60% | > 90% |
| 10 to 20 nM | C[C@H](O)C(=O)N1CCN(c2nc3c(N4CCOCC4)nc(-c4cnc(N)nc4)nc3n2CC(F)(F)F)CC1 [Example 68, (2S)-1-{4-[2-(2-Aminopyrimidin-5-yl)-6-morpholin-4-yl-9-(2,2,2-trifluoroethyl)-9H-purin-8-yl]piperazin-1-yl}-1-oxopropan-2-ol] | > 60% | > 90% |
| < 10 nM | C[C@H]1CN(c2nc3c(N4CCOCC4)nc(-c4cnc(N)nc4)nc3n2CC(F)(F)F)CCN1S(C)(=O)=O [Example 62, 5-{8-[(3S)-3-Methyl-4-(methylsulfonyl)piperazin-1-yl]-6-morpholin-4-yl-9-(2,2,2-trifluoroethyl)-9H-purin-2-yl}pyrimidin-2-amine] | 30 to 60% | > 90% |
| < 10 nM | C[C@@H]1CN(c2nc3c(N4CCOCC4)nc(-c4cnc(N)nc4)nc3n2CC2CC2)CCN1C(=O)[C@@H](C)O [Example 114, (2R)-1-{(2R)-4-[2-(2-Aminopyrimidin-5-yl)-9-(cyclopropylmethyl)-6-morpholin-4-yl-9H-purin-8-yl]-2-methylpiperazin-1-yl}-1-oxopropan-2-ol] | > 60% | > 90% |
| < 10 nM | Nc1ncc(-c2nc(N3CCOCC3)c3nc(N4CCN(C=O)CC4)n(CC(F)(F)F)c3n2)cn1 [Example 71, 4-[2-(2-Aminopyrimidin-5-yl)-6-morpholin-4-yl-9-(2,2,2-trifluoroethyl)-9H-purin-8-yl]piperazine-1-carboaldehyde] | > 60% | > 90% |
| < 10 nM | C[C@@H]1CN(c2nc3c(N4CCOCC4)nc(-c4cnc(N)nc4)nc3n2CC(F)(F)F)C[C@H](C)N1C=O [Example 116, 4-[2-(2-Aminopyrimidin-5-yl)-6-morpholin-4-yl-9-(2,2,2-trifluoroethyl)-9H-purin-8-yl]-cis-2,6-dimethylpiperazine-1-carboaldehyde] | > 60% | > 90% |
| < 10 nM | C[C@@H]1CN(c2nc3c(N4CCOCC4)nc(-c4cnc(N)nc4)nc3n2CC(F)(F)F)CCN1S(C)(=O)=O [Example 61, 5-{8-[(3R)-3-Methyl-4-(methylsulfonyl)piperazin-1-yl]-6-morpholin-4-yl-9-(2,2,2-trifluoroethyl)-9H-purin-2-yl}pyrimidin-2-amine] | > 60% | > 90% |
| < 10 nM | CC[C@H]1CN(c2nc3c(N4CCOCC4)nc(-c4cnc(N)nc4)nc3n2CC(F)(F)F)CCN1S(C)(=O)=O [Example 76, 5-{8-[(3S)-3-Ethyl-4-(methylsulfonyl)piperazin-1-yl]-6-morpholin-4-yl-9-(2,2,2-trifluoroethyl)-9H-purin-2-yl}pyrimidin-2-amine] | > 60% | > 90% |
